Some test systems named below: UO-31 renal; A549 NSCLC; HL-60(TB) leukemia; SNB-75 CNS; EKVX NSCLC; SK-MEL-2 melanoma; HOP-62 NSCLC; LOX IMVI melanoma; SK-MEL-5 melanoma.
Holding throughout (assay): inhibition of tumour cell growth, NCI panel, 48 h

“And” between values parts separate entries of the source, which are not always exact repeats. Equal entries are not always repeated.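 Step 1: Grow cells in 96-well plates. Step 2: Expose to compound for 48 hours at 5 concentrations. Step 3: Interpolate endpoints linearly; if unreached, use highest concentration. GI50 = concentration required for 50% inhibition of growth. Definition used: TGI = concentration required for complete inhibition of growth.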 Bounds are passed on as bounds.

As to `CO/N=C(\C)c1ccc(Nc2cc(-c3ccccc3)nc3c(O)cccc23)cc1`, the GI50 was 19.6 µM with UO-31 renal; 12.8 µM in the experiment on A549 NSCLC; 48.4 µM in the experiment on HL-60(TB) leukemia; 22.1 µM in the experiment on SNB-75 CNS; 15.9 µM with EKVX NSCLC; 28 µM with SK-MEL-2 melanoma. Also, the GI50 in the experiment on HOP-62 NSCLC was 17.6 µM; in the experiment with LOX IMVI melanoma it was 14.3 µM; in the experiment with SK-MEL-5 melanoma it was 23.9 µM. The TGI with UO-31 renal is 42.5 µM; with A549 NSCLC, 28.9 µM; in the experiment with HL-60(TB) leukemia it was over 100 µM; in the experiment with SNB-75 CNS, 46.1 µM; in the experiment with EKVX NSCLC, 41.7 µM; with SK-MEL-2 melanoma it was over 100 µM. Further, the TGI in the experiment with HOP-62 NSCLC was determined as 34.8 µM; in the experiment with LOX IMVI melanoma, 27.9 µM; in the experiment with SK-MEL-5 melanoma, 91.4 µM.
On to `Clc1nc(Cl)c2ncn(Cc3ccc(COc4cccc(OCc5ccc(Cn6cnc7c(Cl)nc(Cl)nc76)cc5)c4)cc3)c2n1`, for which the GI50 is 51.5 µM in the experiment on UO-31 renal; over 100 µM in the experiment on A549 NSCLC; 13.5 µM with HL-60(TB) leukemia; 8.39 µM in the experiment with SNB-75 CNS; 91.4 µM in the experiment with EKVX NSCLC; 28.2 µM in the experiment on SK-MEL-2 melanoma. Moreover, the GI50 was 63.4 µM in the experiment with HOP-62 NSCLC, 2.47 µM in the experiment on LOX IMVI melanoma and 14.3 µM in the experiment with SK-MEL-5 melanoma. Besides, the TGI in the experiment on UO-31 renal is over 100 µM; in the experiment on A549 NSCLC, over 100 µM; in the experiment with HL-60(TB) leukemia, 34.3 µM; in the experiment with SNB-75 CNS, over 100 µM; in the experiment on EKVX NSCLC, over 100 µM; in the experiment with SK-MEL-2 melanoma it was over 100 µM. Moreover, the TGI in the experiment on HOP-62 NSCLC was over 100 µM; with LOX IMVI melanoma it was 12.7 µM; in the experiment on SK-MEL-5 melanoma it was 95.5 µM.
As for `CCCCCCCCCCCCCC(=O)CBr`, the TGI in the experiment on UO-31 renal was 24 µM; in the experiment on A549 NSCLC it was 50.7 µM; with HL-60(TB) leukemia, 3.08 µM; with SNB-75 CNS it was 16 µM; in the experiment on EKVX NSCLC it was 39.9 µM; in the experiment with SK-MEL-2 melanoma, 26.3 µM. Further, the results for the TGI with HOP-62 NSCLC, with LOX IMVI melanoma and with SK-MEL-5 melanoma were 50.6 µM, 23 µM and 26.3 µM, respectively.
In the case of `Cc1cc(C(C#N)c2ccc(Cl)cc2)c(Cl)cc1NC(=O)c1cc(I)cc(I)c1O` (stereo not given), the GI50 with UO-31 renal is 14.7 µM and 14.8 µM; with A549 NSCLC, 13.6 µM and 21.3 µM; in the experiment with HL-60(TB) leukemia, 4.34 µM and 22.1 µM; with SNB-75 CNS it was 12.3 µM and 6.96 µM; in the experiment with EKVX NSCLC, 6.71 µM and 13.2 µM; in the experiment on SK-MEL-2 melanoma, 7.82 µM and 14.9 µM. For the same compound, the GI50 is 13.9 µM and 15.2 µM in the experiment on HOP-62 NSCLC; 10.4 µM and 16.7 µM in the experiment with LOX IMVI melanoma; 3.09 µM and 14.2 µM with SK-MEL-5 melanoma. Besides, the TGI is 31.4 µM and 35.1 µM with UO-31 renal; 56.3 µM and 44.5 µM in the experiment with A549 NSCLC; 15.9 µM and 48.9 µM with HL-60(TB) leukemia; 41.5 µM and 25.6 µM with SNB-75 CNS; 31.1 µM and 33.7 µM with EKVX NSCLC; > 100 µM and 40 µM in the experiment on SK-MEL-2 melanoma. The TGI with HOP-62 NSCLC is 34.4 µM and 32.4 µM; in the experiment on LOX IMVI melanoma, 26.1 µM and 35.5 µM; in the experiment with SK-MEL-5 melanoma, 11 µM and 27.3 µM.
Turning to `O=C(CCl)N1c2ccccc2Sc2c1ccc1ccccc21`, the GI50 was 1.71 µM with UO-31 renal; 9.52 µM in the experiment on A549 NSCLC; 3.06 µM in the experiment with HL-60(TB) leukemia; 2.45 µM in the experiment on SNB-75 CNS; 12.5 µM with EKVX NSCLC; 17.4 µM in the experiment with SK-MEL-2 melanoma. Also, the GI50 in the experiment with HOP-62 NSCLC is 3.29 µM; with LOX IMVI melanoma, 1.12 µM; with SK-MEL-5 melanoma it was 1.73 µM. For the same compound, the TGI in the experiment on UO-31 renal turned out to be 3.8 µM; in the experiment on A549 NSCLC it was 30.3 µM; with HL-60(TB) leukemia, 8.98 µM; with SNB-75 CNS it was 7.78 µM; with EKVX NSCLC it was 25.8 µM; in the experiment with SK-MEL-2 melanoma it was 32.9 µM. For the same compound, the TGI turned out to be 12.9 µM in the experiment on HOP-62 NSCLC, 2.42 µM in the experiment with LOX IMVI melanoma and 3.15 µM in the experiment on SK-MEL-5 melanoma.
In the case of `C[C@@H]1CN(CC(=O)N2CC(C)(C)c3nc(CO)c(Cc4ccc(F)cc4)cc32)[C@@H](CN2CCOC[C@H]2C)CN1`, the GI50 is over 100 µM in the experiment on UO-31 renal; over 100 µM in the experiment on A549 NSCLC; 26.6 µM with HL-60(TB) leukemia; 19.7 µM in the experiment with SNB-75 CNS; 96.7 µM in the experiment with EKVX NSCLC; 5.01 µM in the experiment on SK-MEL-2 melanoma. The values for the GI50 in the experiment on HOP-62 NSCLC, in the experiment on LOX IMVI melanoma and in the experiment with SK-MEL-5 melanoma were over 100 µM, 17.5 µM and 15 µM, respectively. The TGI was over 100 µM in the experiment with UO-31 renal; over 100 µM in the experiment on A549 NSCLC; 76.2 µM with HL-60(TB) leukemia; over 100 µM with SNB-75 CNS; over 100 µM with EKVX NSCLC; 63.9 µM with SK-MEL-2 melanoma. Moreover, the values for the TGI in the experiment on HOP-62 NSCLC, in the experiment on LOX IMVI melanoma and in the experiment with SK-MEL-5 melanoma were over 100 µM, 33.1 µM and 28.3 µM, respectively.
For the compound `CC(=O)c1cc([N+](=O)[O-])ccc1OCC(=O)O`, the TGI in the experiment on UO-31 renal, in the experiment on A549 NSCLC, in the experiment with HL-60(TB) leukemia, with SNB-75 CNS, with EKVX NSCLC and with SK-MEL-2 melanoma was over 100 µM throughout. Besides, the TGI in the experiment on HOP-62 NSCLC, in the experiment on LOX IMVI melanoma and with SK-MEL-5 melanoma was over 100 µM throughout.
As for `COc1cc(/C=C/C(=O)c2sc(Nc3ccccc3)nc2C)ccc1O`, the TGI in the experiment on UO-31 renal is over 100 µM; in the experiment with A549 NSCLC it was over 100 µM; in the experiment with HL-60(TB) leukemia it was over 100 µM; in the experiment on SNB-75 CNS it was 84.8 µM; with EKVX NSCLC, over 100 µM; in the experiment on SK-MEL-2 melanoma it was over 100 µM. The TGI in the experiment with HOP-62 NSCLC, in the experiment with LOX IMVI melanoma and with SK-MEL-5 melanoma was over 100 µM in each case.
On to `CC(=O)Nc1ccc2c(c1)oc(=O)c1cc(NC(C)=O)ccc12`, for which the GI50 in the experiment on UO-31 renal was over 100 µM; with A549 NSCLC it was over 100 µM; in the experiment with HL-60(TB) leukemia, 41.3 µM; with SNB-75 CNS it was over 100 µM; in the experiment with EKVX NSCLC, over 100 µM; in the experiment on SK-MEL-2 melanoma, over 100 µM. For the same compound, the values for the GI50 in the experiment with HOP-62 NSCLC, with LOX IMVI melanoma and with SK-MEL-5 melanoma were over 100 µM, 75.6 µM and 96.5 µM, respectively. Moreover, the TGI with UO-31 renal, with A549 NSCLC, with HL-60(TB) leukemia, in the experiment with SNB-75 CNS, in the experiment on EKVX NSCLC and with SK-MEL-2 melanoma was over 100 µM throughout. Further, the TGI in the experiment on HOP-62 NSCLC, with LOX IMVI melanoma and with SK-MEL-5 melanoma was over 100 µM in each case.

Source of the values: PubChem BioAssay (NCI).
